From ChEMBL document CHEMBL1909046, “DrugMatrix in vitro pharmacology data”

What was measured:
[1] = target: T1, Alpha-1B adrenergic receptor (Rattus norvegicus, UniProt P15823); test: DRUGMATRIX: Alpha-1B adrenergic receptor radioligand binding (ligand: prazosin); format: cell membranes, Wistar, Liver, Membrane; details: Not Active = under 50% inhibition at 10 µM
T1 sequence (P15823 whole entry): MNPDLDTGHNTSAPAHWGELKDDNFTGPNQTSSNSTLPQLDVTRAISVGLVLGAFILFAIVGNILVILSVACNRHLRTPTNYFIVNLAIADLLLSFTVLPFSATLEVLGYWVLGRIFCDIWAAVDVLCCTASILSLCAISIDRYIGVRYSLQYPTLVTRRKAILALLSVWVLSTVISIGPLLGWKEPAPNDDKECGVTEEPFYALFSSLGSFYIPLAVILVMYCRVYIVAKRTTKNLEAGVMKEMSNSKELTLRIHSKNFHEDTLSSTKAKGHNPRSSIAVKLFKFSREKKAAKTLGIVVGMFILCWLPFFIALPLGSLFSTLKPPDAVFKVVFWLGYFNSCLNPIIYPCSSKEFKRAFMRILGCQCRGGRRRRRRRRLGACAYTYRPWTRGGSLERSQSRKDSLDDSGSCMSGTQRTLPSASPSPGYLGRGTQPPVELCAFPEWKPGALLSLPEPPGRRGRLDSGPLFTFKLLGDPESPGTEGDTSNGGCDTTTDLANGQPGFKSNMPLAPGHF

[2] = target: cGMP-specific 3',5'-cyclic phosphodiesterase (Homo sapiens, UniProt O76074); test: DRUGMATRIX: Phosphodiesterase PDE5 enzyme inhibition (substrate: [3H]cGMP + cGMP); format: tissue-based, Platelet; details: platelet; Not Active = under 50% inhibition at 10 µM
[3] = target: 5-hydroxytryptamine receptor 1B (Rattus norvegicus, UniProt P28564); format: cell membranes, Wistar, Cerebral cortex, Membrane; further: in other assays of this panel Not Active means under 50% inhibition at 10 µM
[4] = target: Prostaglandin G/H synthase 1 (Homo sapiens, UniProt P23219); test: biochemical; format: tissue-based, Platelet; details: platelet;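 further: inhibition of COX-1 enzyme activity, with arachidonic acid supplied as substrate; in other assays of this panel Not Active means under 50% inhibition at 10 µM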
Carbonic anhydrase 2 = Carbonic anhydrase 2 (Homo sapiens, UniProt P00918); test: DRUGMATRIX: Carbonic Anhydrase II enzyme inhibition (substrate: 4-Nitrophenyl acetate (4-NPA)); format: tissue-based, Erythrocyte; details: Not Active = under 50% inhibition at 10 µM
Cytochrome P450 2C19 = Cytochrome P450 2C19 (Homo sapiens, UniProt P33261); details: bti-tn-5b1-4; further: in other assays of this panel Not Active means under 50% inhibition at 10 µM
Cytochrome P450 2C9 = Cytochrome P450 2C9 (Homo sapiens, UniProt P11712); details: bti-tn-5b1-4; further: in other assays of this panel Not Active means under 50% inhibition at 10 µM
Cytochrome P450 2C9, sequence (P11712 whole entry): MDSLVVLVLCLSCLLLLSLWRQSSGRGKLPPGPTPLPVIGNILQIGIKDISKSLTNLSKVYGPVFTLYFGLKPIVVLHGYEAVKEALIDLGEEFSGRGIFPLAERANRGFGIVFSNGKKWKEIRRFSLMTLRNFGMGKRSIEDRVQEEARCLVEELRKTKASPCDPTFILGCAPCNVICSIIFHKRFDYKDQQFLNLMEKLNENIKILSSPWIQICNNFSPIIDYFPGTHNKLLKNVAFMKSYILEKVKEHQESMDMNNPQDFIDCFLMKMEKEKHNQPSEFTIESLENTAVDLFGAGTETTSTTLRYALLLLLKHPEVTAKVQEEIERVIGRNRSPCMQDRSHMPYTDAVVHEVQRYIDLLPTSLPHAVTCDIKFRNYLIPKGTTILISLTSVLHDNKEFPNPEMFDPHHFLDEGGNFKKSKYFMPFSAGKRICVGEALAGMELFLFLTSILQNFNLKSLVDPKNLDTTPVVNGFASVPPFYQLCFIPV

Cytochrome P450 2C19, sequence (P33261 whole entry): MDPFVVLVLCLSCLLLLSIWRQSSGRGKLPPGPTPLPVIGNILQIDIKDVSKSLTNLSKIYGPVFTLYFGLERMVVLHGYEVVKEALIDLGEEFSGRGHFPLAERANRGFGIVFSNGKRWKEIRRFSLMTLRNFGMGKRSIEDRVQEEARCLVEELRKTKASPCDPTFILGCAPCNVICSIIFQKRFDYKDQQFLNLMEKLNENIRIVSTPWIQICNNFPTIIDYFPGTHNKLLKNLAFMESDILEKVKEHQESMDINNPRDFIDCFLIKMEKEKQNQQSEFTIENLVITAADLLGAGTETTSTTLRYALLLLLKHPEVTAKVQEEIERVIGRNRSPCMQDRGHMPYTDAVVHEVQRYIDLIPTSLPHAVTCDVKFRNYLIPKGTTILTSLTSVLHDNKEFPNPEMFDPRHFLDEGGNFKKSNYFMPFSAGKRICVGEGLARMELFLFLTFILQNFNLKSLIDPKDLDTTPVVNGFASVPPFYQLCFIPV
Prostaglandin G/H synthase 1, sequence (P23219 whole entry): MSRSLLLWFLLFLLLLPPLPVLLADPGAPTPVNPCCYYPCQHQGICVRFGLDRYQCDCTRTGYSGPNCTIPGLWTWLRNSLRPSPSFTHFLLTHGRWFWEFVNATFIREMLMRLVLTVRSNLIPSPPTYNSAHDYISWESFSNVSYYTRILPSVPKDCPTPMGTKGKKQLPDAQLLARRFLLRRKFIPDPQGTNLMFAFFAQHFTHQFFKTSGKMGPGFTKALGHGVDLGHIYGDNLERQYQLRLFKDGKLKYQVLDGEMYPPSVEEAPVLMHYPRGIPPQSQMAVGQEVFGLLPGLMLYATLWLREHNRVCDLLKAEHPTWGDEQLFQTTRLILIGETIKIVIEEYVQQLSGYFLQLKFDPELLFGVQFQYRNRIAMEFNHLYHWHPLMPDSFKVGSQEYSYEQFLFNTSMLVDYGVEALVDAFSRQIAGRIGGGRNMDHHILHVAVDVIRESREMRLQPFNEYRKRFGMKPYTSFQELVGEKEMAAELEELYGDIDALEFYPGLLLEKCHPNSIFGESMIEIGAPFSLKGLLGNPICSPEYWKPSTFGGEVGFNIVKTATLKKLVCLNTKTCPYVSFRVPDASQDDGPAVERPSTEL
5-hydroxytryptamine receptor 1B, sequence (P28564 whole entry): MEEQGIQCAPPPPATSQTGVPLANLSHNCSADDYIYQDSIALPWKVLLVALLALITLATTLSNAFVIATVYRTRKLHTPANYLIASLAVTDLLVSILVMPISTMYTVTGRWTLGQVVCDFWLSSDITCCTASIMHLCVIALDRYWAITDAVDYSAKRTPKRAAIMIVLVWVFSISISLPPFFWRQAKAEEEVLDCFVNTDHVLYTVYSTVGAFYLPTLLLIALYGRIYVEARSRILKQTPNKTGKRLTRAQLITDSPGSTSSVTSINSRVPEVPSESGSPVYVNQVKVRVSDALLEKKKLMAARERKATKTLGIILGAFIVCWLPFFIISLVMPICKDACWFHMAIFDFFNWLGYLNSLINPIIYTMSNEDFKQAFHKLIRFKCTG

Structure (SMILES)	IC50 [1]	IC50 [2]	IC50 [3]	IC50 [4]	IC50 (Carbonic anhydrase 2; erythrocyte)	IC50 (Cytochrome P450 2C19)	Ki (Cytochrome P450 2C19)	IC50 (Cytochrome P450 2C9)	Ki (Cytochrome P450 2C9)	IC50 ([3]; read-out: IC50) [nM]	Ki ([3]; read-out: Ki) [nM]	IC50 (Carbonic anhydrase 2; read-out: IC50) [nM]
NS(=O)(=O)c1cc(C(=O)O)c(NCc2ccco2)cc1Cl [FUROSEMIDE]	Not Active	Not Active	Not Active	Not Active								
CC(C)NCC(O)COc1ccc(CC(N)=O)cc1 (stereo not given) [ATENOLOL]	Not Active	Not Active	Not Active	Not Active	Not Active							
Oc1ncnc2[nH]ncc12 [ALLOPURINOL]	Not Active	Not Active	Not Active	Not Active	Not Active	Not Active	Not Active	Not Active	Not Active			
NCC(CC(=O)O)c1ccc(Cl)cc1 (stereo not given) [BACLOFEN]	Not Active	Not Active	Not Active	Not Active	Not Active	Not Active	Not Active	Not Active	Not Active			
Cc1cc(C(C)(C)C)c(O)c(C)c1CC1=NCCN1 [OXYMETAZOLINE]		Not Active		Not Active	Not Active	Not Active	Not Active	Not Active	Not Active	2	0.909	
CC[C@H]1OC(=O)[C@H](C)[C@@H](O[C@H]2C[C@@](C)(OC)[C@@H](O)[C@H](C)O2)[C@H](C)[C@@H](O[C@@H]2O[C@H](C)C[C@H](N(C)C)[C@H]2O)[C@](C)(O)C[C@@H](C)C(=O)[C@H](C)[C@@H](O)[C@]1(C)O [ERYTHROMYCIN]	Not Active	Not Active	Not Active	Not Active	Not Active	Not Active	Not Active					
O=C(O)CNCP(=O)(O)O [GLYPHOSATE]	Not Active	Not Active	Not Active	Not Active	Not Active							
C[C@H]1C[C@H]2[C@@H]3CCC4=CC(=O)C=C[C@]4(C)[C@@]3(F)[C@@H](O)C[C@]2(C)[C@@]1(O)C(=O)CO [BETAMETHASONE]	Not Active	Not Active	Not Active	Not Active	Not Active							
CNC[C@H](O)c1ccc(O)c(O)c1 [EPINEPHRINE]		Not Active	Not Active	Not Active	Not Active	Not Active	Not Active	Not Active	Not Active			
CN(CCOc1ccc(C[C@H](Nc2ccccc2C(=O)c2ccccc2)C(=O)O)cc1)c1ccccn1	Not Active	Not Active	Not Active	Not Active	Not Active	Not Active	Not Active					
C#C[C@]1(O)CC[C@H]2[C@@H]3CCC4=CC(=O)CC[C@@H]4[C@H]3CC[C@@]21C [NORETHINDRONE]	Not Active	Not Active	Not Active	Not Active	Not Active	Not Active	Not Active					
CCN(CCO)CCCC(C)Nc1ccnc2cc(Cl)ccc12 (stereo not given) [HYDROXYCHLOROQUINE]	Not Active	Not Active	Not Active	Not Active	Not Active							
CC1(COc2ccc(CC3SC(=O)NC3=O)cc2)CCCCC1 (stereo not given) [CIGLITAZONE]	Not Active	Not Active	Not Active	Not Active				Not Active	Not Active			86
COc1cc([C@@H]2c3cc4c(cc3[C@H](O)[C@H]3COC(=O)[C@H]23)OCO4)cc(OC)c1OC [PODOFILOX]	Not Active	Not Active	Not Active	Not Active	Not Active							
CC(C)Cc1ccc([C@H](C)C(=O)O)cc1 [DEXIBUPROFEN]	Not Active	Not Active	Not Active		Not Active	Not Active	Not Active	Not Active	Not Active			
